Measurements as given in ChEMBL document CHEMBL4819006, “1,4,6-Trisubstituted imidazo[4,5-c]pyridines as inhibitors of Bruton's tyrosine kinase” (Eur J Med Chem, 2021).
Active and inactive are the calls of the source. No cut-off for these calls is given here.

Key:
Rec1 = assay: Growth inhibition of human REC1 cells assessed as inhibition of cell growth measured after 72 hrs by resazurin dye based assay; type: functional
[1] = biological target: Tyrosine-protein kinase SYK (Homo sapiens) (UniProt P43405); assay: Inhibition of human recombinant GST-tagged SYK (M1 to N635 residues) assessed as residual activity using poly (Glu,Tyr) as substrate in presence of ATP and Ci(gamma33-P) ATP at 1 uM measured by microplate reader assay
K562 = assay: Growth inhibition of human K562 cells assessed as inhibition of cell growth measured after 72 hrs by resazurin dye based assay; type: functional
[2] = Growth inhibition of human patient derived UPF7U cells assessed as inhibition of cell growth measured after 72 hrs by resazurin dye based assay; type: functional
[3] = biological target: Cyclin-dependent kinase 2 (Homo sapiens) (UniProt P24941); assay: Inhibition of GST-tagged CDK2/cyclinE (unknown origin) expressed in Sf9 cells assessed as residual activity using histone H1 as substrate in presence of ATP and Ci(gamma33-P) ATP at 1 uM measured by microplate reader assay
[4] = biological target: Tyrosine-protein kinase Fyn (Homo sapiens) (UniProt P06241); assay: Inhibition of human recombinant full length GST-tagged FYN (M1 to L537 residues) assessed as residual activity using poly (Glu,Tyr) as substrate in presence of ATP and Ci(gamma33-P) ATP at 1 uM measured by microplate reader assay
[5] = Growth inhibition of human patient derived UPF1H cells assessed as inhibition of cell growth measured after 72 hrs by resazurin dye based assay; type: functional
[6] = biological target: Receptor-type tyrosine-protein kinase FLT3 (Homo sapiens) (UniProt P36888); assay: Inhibition of human recombinant […] N-terminal GST-tagged FLT3 (R571 to S993 residues) assessed as residual activity using poly (Ala, Glu, Lys, Tyr) hydrobromide as substrate in presence of ATP and Ci(gamma33-P) ATP at 1 uM measured by microplate reader assay
[7] = biological target: Tyrosine-protein kinase ABL1 (Homo sapiens) (UniProt P00519); assay: Inhibition of Abl (unknown origin) expressed in Sf9 cells assessed as residual activity using GGEAIYAAPFKK peptide as substrate in presence of ATP and Ci(gamma33-P)ATP at 1 uM measured by microplate reader
Ramos = assay: Growth inhibition of human Ramos cells assessed as inhibition of cell growth measured after 72 hrs by resazurin dye based assay; type: functional
[8] = biological target: Mitogen-activated protein kinase; ERK1/ERK2 (Homo sapiens) (UniProt P27361+P28482); assay: Inhibition of ERK1/2 in human Ramos cells assessed as reduction in ERK1/2 phosphorylation at 1 to 5 uM measured after 24 hrs by western blot assay; type: cell-based; details: dose 1-5 µM
[9] = biological target: T1, Tyrosine-protein kinase BTK (Homo sapiens, UniProt Q06187); assay: Inhibition of human BTK assessed as residual activity using poly (Glu,Tyr) as substrate in presence of ATP and Ci(gamma33-P) ATP at 1 uM measured by microplate reader assay
[10] = biological target: T1, Tyrosine-protein kinase BTK; assay: Inhibition of BTK in human Ramos cells assessed as reduction of IgM stimulated PLCgamma2 (Y1217) phosphorylation at 1 to 5 uM measured after 24 hrs by western blot assay; type: cell-based; details: dose 1-5 µM
[11] = biological target: T1, Tyrosine-protein kinase BTK; assay: Inhibition of human BTK using poly (Glu,Tyr) as substrate in presence of ATP and Ci(gamma33-P) ATP measured by microplate reader assay
[12] = biological target: T1, Tyrosine-protein kinase BTK; assay: Inhibition of BTK in human Ramos cells assessed as reduction of IgM stimulated BTK ([…]) phosphorylation at 1 to 5 uM measured after 24 hrs by western blot assay; type: cell-based; details: dose 1-5 µM
[13] = biological target: T1, Tyrosine-protein kinase BTK; assay: Inhibition of BTK in human Ramos cells assessed as reduction of IgM stimulated PLCgamma2 (Y1217) phosphorylation at 0.125 to 1 uM measured after 24 hrs by western blot assay relative to Ibrutinib; type: cell-based; details: dose 0.125-1 µM
[14] = biological target: T1, Tyrosine-protein kinase BTK; assay: Inhibition of BTK in human UPF7U cells assessed as reduction of IgM stimulated PLCgamma2 (Y1217) phosphorylation at 0.125 to 1 uM measured after 24 hrs by western blot assay relative to Ibrutinib; type: cell-based; details: dose 0.125-1 µM
[15] = biological target: Proto-oncogene tyrosine-protein kinase Src (Homo sapiens) (UniProt P12931); assay: Inhibition of recombinant SRC (unknown origin) assessed as residual activity at 1 uM
[16] = biological target: T1, Tyrosine-protein kinase BTK; assay: Inhibition of BTK in human UPF7U cells assessed as reduction of IgM stimulated PLCgamma1 (Y783) phosphorylation at 0.125 to 1 uM measured after 24 hrs by western blot assay relative to Ibrutinib; type: cell-based; details: dose 0.125-1 µM
[17] = biological target: T1, Tyrosine-protein kinase BTK; assay: Inhibition of BTK in human Ramos cells assessed as reduction of IgM stimulated PLCgamma1 (Y783) phosphorylation at 0.125 to 1 uM measured after 24 hrs by western blot assay relative to Ibrutinib; type: cell-based; details: dose 0.125-1 µM
[18] = biological target: T1, Tyrosine-protein kinase BTK; assay: Inhibition of BTK in human UPF7U cells assessed as reduction of IgM stimulated BTK phosphorylation measured after 24 hrs by western blot assay; type: cell-based; details: dose 0.125-1 µM
[19] = biological target: T1, Tyrosine-protein kinase BTK; assay: Inhibition of BTK in human Ramos cells assessed as reduction of IgM stimulated BTK phosphorylation measured after 24 hrs by western blot assay; type: cell-based; details: dose 0.125-1 µM
[20] = biological target: Tyrosine-protein kinase Lck (Homo sapiens) (UniProt P06239); assay: Inhibition of recombinant LCK (unknown origin) assessed as residual activity at 1 uM

Chain of Tyrosine-protein kinase ABL1 (Homo sapiens) (P00519 whole entry): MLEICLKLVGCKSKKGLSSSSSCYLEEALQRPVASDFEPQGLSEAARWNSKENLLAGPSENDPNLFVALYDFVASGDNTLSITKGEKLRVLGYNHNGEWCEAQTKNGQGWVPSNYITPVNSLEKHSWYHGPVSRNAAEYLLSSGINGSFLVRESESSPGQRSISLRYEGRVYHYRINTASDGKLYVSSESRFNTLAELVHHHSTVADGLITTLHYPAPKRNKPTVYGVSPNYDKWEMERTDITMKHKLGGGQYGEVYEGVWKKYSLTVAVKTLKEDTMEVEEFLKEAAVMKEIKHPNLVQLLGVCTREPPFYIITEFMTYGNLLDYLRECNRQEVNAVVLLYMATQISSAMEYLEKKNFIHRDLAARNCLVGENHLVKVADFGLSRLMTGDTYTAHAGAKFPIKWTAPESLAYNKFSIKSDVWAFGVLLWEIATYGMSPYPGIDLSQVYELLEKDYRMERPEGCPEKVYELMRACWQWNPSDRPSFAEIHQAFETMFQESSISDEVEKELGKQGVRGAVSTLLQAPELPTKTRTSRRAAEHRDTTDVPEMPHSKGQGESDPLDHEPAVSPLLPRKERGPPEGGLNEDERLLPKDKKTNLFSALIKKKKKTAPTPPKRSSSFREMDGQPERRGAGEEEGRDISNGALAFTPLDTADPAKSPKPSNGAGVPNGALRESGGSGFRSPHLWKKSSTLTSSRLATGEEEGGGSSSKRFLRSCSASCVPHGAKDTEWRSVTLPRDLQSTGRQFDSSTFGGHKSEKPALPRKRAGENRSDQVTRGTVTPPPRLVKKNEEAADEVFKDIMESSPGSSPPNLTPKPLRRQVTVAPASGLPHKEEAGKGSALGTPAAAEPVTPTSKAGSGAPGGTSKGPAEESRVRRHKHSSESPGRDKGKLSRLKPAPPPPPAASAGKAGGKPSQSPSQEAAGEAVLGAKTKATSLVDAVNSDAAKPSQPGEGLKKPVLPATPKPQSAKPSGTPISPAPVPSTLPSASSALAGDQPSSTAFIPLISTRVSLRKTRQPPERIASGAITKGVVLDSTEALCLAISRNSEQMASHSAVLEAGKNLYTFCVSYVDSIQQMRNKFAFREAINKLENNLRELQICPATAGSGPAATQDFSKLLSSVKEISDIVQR
Chain of Receptor-type tyrosine-protein kinase FLT3 (Homo sapiens) (P36888 whole entry, the tested form may be a part): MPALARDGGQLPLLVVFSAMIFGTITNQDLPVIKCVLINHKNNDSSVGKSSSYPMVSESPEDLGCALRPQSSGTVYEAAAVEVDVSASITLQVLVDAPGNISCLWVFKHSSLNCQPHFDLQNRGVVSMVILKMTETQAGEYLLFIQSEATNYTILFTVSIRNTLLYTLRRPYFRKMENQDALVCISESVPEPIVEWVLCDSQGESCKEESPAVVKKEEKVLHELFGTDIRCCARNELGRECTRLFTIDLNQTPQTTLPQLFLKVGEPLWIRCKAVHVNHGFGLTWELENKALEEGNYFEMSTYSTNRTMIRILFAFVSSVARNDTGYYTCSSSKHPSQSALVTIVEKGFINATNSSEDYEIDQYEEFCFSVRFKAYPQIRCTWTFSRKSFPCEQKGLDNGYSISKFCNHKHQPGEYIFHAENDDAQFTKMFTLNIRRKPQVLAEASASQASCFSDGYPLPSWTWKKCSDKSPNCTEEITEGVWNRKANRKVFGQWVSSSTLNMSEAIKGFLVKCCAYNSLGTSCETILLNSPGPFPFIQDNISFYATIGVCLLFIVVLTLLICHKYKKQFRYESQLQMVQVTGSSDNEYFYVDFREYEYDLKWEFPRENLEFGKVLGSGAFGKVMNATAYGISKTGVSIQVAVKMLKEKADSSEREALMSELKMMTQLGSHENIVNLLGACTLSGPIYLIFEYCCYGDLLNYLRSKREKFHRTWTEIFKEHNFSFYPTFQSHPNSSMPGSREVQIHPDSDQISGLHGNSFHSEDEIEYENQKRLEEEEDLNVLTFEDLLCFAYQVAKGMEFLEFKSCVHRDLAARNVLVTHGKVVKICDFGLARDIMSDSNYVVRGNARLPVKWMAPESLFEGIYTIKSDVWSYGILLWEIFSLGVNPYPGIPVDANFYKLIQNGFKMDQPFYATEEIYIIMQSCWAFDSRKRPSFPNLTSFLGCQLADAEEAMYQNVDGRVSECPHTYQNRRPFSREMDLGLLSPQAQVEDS
T1 sequence (Q06187 whole entry): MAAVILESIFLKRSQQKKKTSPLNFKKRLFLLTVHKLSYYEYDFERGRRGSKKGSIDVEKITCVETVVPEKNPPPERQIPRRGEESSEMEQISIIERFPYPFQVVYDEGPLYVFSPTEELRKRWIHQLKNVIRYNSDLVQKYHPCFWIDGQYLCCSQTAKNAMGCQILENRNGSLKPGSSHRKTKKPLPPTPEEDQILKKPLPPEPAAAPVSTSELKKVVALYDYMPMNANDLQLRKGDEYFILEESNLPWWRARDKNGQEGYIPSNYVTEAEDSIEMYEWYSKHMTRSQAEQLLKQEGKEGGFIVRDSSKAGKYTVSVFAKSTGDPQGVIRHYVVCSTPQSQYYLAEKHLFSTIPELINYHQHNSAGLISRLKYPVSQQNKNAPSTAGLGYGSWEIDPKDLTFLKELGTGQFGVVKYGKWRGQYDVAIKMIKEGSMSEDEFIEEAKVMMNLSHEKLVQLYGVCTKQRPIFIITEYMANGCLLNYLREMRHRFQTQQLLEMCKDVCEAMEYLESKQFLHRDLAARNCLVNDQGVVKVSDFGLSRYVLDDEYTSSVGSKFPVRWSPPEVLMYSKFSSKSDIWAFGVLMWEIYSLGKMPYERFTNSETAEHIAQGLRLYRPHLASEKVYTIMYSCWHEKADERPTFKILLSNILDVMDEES
Chain of Mitogen-activated protein kinase; ERK1/ERK2 (Homo sapiens) (P27361 whole entry, looked up): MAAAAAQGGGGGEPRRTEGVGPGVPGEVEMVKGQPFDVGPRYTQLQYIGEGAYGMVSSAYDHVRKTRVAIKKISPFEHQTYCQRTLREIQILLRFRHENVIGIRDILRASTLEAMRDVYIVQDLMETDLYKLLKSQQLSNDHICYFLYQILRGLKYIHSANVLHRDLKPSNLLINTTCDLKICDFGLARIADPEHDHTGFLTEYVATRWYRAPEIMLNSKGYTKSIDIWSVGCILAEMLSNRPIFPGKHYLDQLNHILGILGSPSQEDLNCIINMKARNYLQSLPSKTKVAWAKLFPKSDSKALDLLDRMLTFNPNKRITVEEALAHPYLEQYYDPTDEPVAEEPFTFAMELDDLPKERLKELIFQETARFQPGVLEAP
Chain of Mitogen-activated protein kinase; ERK1/ERK2 (Homo sapiens) (P28482 whole entry, looked up): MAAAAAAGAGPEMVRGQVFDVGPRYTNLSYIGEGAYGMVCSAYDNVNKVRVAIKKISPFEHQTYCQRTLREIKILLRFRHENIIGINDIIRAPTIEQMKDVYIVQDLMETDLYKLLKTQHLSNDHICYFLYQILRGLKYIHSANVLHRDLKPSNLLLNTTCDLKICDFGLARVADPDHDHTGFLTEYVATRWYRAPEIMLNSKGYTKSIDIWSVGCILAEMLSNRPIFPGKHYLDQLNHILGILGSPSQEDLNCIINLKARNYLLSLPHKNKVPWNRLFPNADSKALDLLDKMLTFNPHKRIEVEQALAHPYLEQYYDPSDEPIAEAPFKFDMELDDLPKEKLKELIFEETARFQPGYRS
Chain of Tyrosine-protein kinase Fyn (Homo sapiens) (P06241 2-537 limits assumed): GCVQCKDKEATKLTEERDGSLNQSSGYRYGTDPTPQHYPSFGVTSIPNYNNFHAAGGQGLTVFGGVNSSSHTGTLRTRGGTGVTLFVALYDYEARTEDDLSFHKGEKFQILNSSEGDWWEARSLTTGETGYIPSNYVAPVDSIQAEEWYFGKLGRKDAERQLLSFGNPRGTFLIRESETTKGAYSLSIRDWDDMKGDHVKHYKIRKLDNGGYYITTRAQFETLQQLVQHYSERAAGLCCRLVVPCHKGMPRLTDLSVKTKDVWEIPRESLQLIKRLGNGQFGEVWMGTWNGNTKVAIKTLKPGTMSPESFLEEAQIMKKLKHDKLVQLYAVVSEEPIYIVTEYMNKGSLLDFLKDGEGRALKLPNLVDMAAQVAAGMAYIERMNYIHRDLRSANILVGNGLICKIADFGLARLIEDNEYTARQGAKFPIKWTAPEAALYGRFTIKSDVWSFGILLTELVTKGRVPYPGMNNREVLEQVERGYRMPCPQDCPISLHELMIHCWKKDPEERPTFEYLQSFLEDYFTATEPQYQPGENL
Chain of Proto-oncogene tyrosine-protein kinase Src (Homo sapiens) (P12931 2-536 limits assumed): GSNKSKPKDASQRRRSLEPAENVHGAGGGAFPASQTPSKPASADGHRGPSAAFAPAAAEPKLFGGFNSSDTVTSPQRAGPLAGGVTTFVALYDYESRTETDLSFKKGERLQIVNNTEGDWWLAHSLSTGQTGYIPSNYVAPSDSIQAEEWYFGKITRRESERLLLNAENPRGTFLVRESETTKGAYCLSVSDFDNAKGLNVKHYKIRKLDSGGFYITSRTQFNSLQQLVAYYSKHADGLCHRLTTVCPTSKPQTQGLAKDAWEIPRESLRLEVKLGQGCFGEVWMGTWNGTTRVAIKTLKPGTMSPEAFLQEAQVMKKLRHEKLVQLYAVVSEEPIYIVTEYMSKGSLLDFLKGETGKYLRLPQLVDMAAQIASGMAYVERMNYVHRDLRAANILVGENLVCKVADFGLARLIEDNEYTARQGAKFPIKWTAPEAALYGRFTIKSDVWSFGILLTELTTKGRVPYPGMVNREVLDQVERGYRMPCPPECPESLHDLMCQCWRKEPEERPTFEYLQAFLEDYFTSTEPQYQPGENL

SMILES | Activity [1] [%] | Activity [3] [%] | Activity [4] [%] | Activity [6] [%] | Activity [7] [%] | GI50 (Rec1; Homo sapiens, Rec1) [µM] | GI50 (K562; Homo sapiens, K562) [µM] | Activity [9] [%] | GI50 ([2]; Homo sapiens, UPF7U) [µM] | IC50 [11] [µM] | GI50 ([5]; Homo sapiens, UPF1H) [µM] | GI50 (Ramos; Homo sapiens, Ramos) [µM] | other results
C=CC(=O)N1CCC[C@H](n2nc(-c3ccc(Oc4ccccc4)cc3)c3c(N)ncnc32)C1 | 77.3 | 69.8 | 57.5 | 60.3 | 62.8 | – | – | – | – | – | – | – | GI50 (Rec1): 3.3 µM; GI50 (K562): > 4 µM; GI50 [2]: > 4 µM; GI50 [5]: > 4 µM; GI50 (Ramos): > 4 µM
Cc1c(NC(=O)c2cccnc2)cccc1-c1cc2[nH]cnc2c(Nc2ccc(C(=O)N3CCOCC3)cc2)n1 | 62.3 | 89 | 75.2 | 76.2 | 69.1 | > 50 | > 50 | 25.3 | > 50 | 0.264 | > 50 | > 50 | inhibition [8]: inactive; inhibition [10]: Active; inhibition [12]: Active
Cc1c(NC(=O)c2nc3ccccc3[nH]2)cccc1-c1cc2[nH]cnc2c(Nc2ccc(C(=O)N3CCOCC3)cc2)n1 | 92 | 97.9 | 64.7 | 53.9 | 78 | > 12.5 | 10 | 20.9 | > 12.5 | 0.035 | > 12.5 | 10.1 | inhibition [10]: Active; inhibition [12]: Active
Cc1c(NC(=O)c2cccc(C(C)(C)C)c2)cccc1-c1cc2[nH]cnc2c(Nc2ccc(C(=O)N3CCOCC3)cc2)n1 | 74.1 | 95.3 | 81 | 64.9 | > 100 | 64 | 60.1 | 43.3 | > 50 | 0.709 | 40.3 | 18.6 | –
CC(=O)Nc1cccc(-c2cc3[nH]cnc3c(Nc3ccc(C(=O)N4CCOCC4)cc3)n2)c1C | 61.7 | 94.5 | 84 | 95 | 52.4 | > 50 | > 50 | 38.8 | > 50 | 0.545 | 35.1 | > 50 | –
Cc1c(NC(=O)c2c[nH]cn2)cccc1-c1cc2[nH]cnc2c(Nc2ccc(C(=O)N3CCOCC3)cc2)n1 | 76.5 | 94.6 | 36.6 | 68.3 | 80.8 | > 50 | > 50 | 27.2 | > 50 | 0.079 | > 25 | > 50 | –
COc1ccc(Cn2cnc3c(Nc4ccc(C(=O)N5CCOCC5)cc4)nc(-c4cccc(NC(=O)c5ccc(C(C)(C)C)cc5)c4C)cc32)cc1 | 82.3 | 96.7 | 73.9 | 42.7 | 95.1 | > 50 | > 50 | 71.2 | > 50 | > 10 | > 50 | > 50 | –
Cc1c(NC(=O)c2ccccc2)cccc1-c1cc2[nH]cnc2c(Nc2ccc(C(=O)N3CCOCC3)cc2)n1 | 71.3 | 85.2 | 65.3 | 47 | 68.2 | > 16.6 | > 16.6 | 20.1 | > 50 | 0.155 | > 50 | > 16.6 | –
Cc1cccc(-c2cc3[nH]cnc3c(Nc3ccc(C(=O)N4CCOCC4)cc3)n2)c1C | – | – | – | – | – | 42 | > 50 | – | > 50 | – | > 50 | 45.8 | inhibition [8]: inactive
Cc1cccc(-c2cc(Nc3ccc(C(=O)N4CCOCC4)cc3)c3nc[nH]c3n2)c1C | – | – | – | – | – | > 50 | > 50 | – | > 50 | – | > 50 | > 50 | –
Cc1c(NC(=O)c2ccc(C(C)(C)C)cc2)cccc1-c1cc2c(ncn2C)c(Nc2ccc(C(=O)N3CCOCC3)cc2)n1 | 74.3 | 95.6 | 68.8 | > 100 | > 100 | 17.7 | 57.3 | 39.7 | 35.6 | 0.527 | 25.6 | 12.2 | –
Cc1c(NC(=O)C2CCCCC2)cccc1-c1cc2[nH]cnc2c(Nc2ccc(C(=O)N3CCOCC3)cc2)n1 | 43.3 | 93 | 95.1 | 75.7 | – | > 50 | 49 | 61.5 | > 50 | 0.932 | 44.1 | 47.2 | inhibition [8]: inactive; inhibition [10]: Active; inhibition [12]: Active
Cc1c(NC(=O)c2ccc(C(C)(C)C)cc2)cccc1-c1cc2[nH]cnc2c(Nc2ccc(C(=O)N3CCOCC3)cc2)n1 | 80.3 | 92.1 | 80.6 | 51.9 | > 100 | 24 | 32.7 | 18.4 | 20.6 | 0.025 | 12.2 | 16.5 | inhibition [8]: inactive; inhibition [10]: Active; inhibition [12]: Active
CC(C)(C)c1ccc(C(=O)Nc2cccc(-c3cc4[nH]cnc4c(Nc4ccc(C(=O)N5CCOCC5)cc4)n3)c2)cc1 | 71.4 | 98.7 | 86.4 | > 100 | 95.9 | 6 | 2.3 | 14.7 | 5.5 | 0.027 | 1 | 1.2 | inhibition [13]: Active; inhibition [14]: Active; inhibition [15]: Active; inhibition [16]: Active; inhibition [17]: Active; inhibition [18]: Dose-Dependent Effect; inhibition [19]: Dose-Dependent Effect; inhibition [20]: Active
Cc1c(NC(=O)c2ccccn2)cccc1-c1cc2[nH]cnc2c(Nc2ccc(C(=O)N3CCOCC3)cc2)n1 | 72.5 | 93.7 | 78.8 | > 100 | 56.8 | > 12.5 | > 12.5 | 27.4 | > 12.5 | 0.166 | > 12.5 | > 12.5 | –
Cc1c(NC(=O)c2ncc[nH]2)cccc1-c1cc2[nH]cnc2c(Nc2ccc(C(=O)N3CCOCC3)cc2)n1 | 66 | 93.6 | 56.3 | 33.3 | 39.4 | > 25 | > 25 | 24.2 | > 25 | 0.041 | > 12.5 | > 25 | –
